From ChEMBL document CHEMBL1201862, “PubChem BioAssay data set” (2004)
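Grown in 96-well plates, cells were treated for 48 hours with each compound at five concentrations. Insufficient inhibition: endpoint recorded as highest concentration tested. At the GI50, growth is halved.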 Calls of active or inactive are those of the source. Cut-off read from the data, not from the text of the source: active = GI50 up to about 1.1 µM and inactive = higher. Where a SMILES comes first, the peptide text is derived from it. [ ]: non-standard residue; d: D form. The star is where a group is joined. ξ: configuration not given here. X4 = COc1ccc(C(N*)c2ccc(OC)cc2)cc1; NMeF = CN[C@@H](Cc1ccccc1)C(=O)O; NMeD = CN[C@@H](CC(=O)O)C(=O)O; NMeV = CN[C@H](C(=O)O)C(C)C; ξNMeV = CNC(C(=O)O)C(C)C; Boc = CC(C)(C)OC(=O)*; ξNMeA = CNC(C)C(=O)O; ξV = CC(C)C(N)C(=O)O

Legend:
Experiment in all cases: NCI-60 cell line screen, 48 h
MOLT-4 = test system: MOLT-4
SK-MEL-28 = test system: SK-MEL-28
MDA-N = test system: MDA-N
BT-549 = test system: BT-549
HOP-92 = test system: HOP-92
EKVX = test system: EKVX
Hs-578T = test system: Hs-578T
M14 = test system: M14
HT-29 = test system: HT-29
SK-MEL-5 = test system: SK-MEL-5
SK-MEL-2 = test system: SK-MEL-2
T47D = test system: T47D
SW-620 = test system: SW-620
HL-60 = test system: HL-60
NCI-H226 = test system: NCI-H226
SR = test system: SR
NCI-H460 = test system: NCI-H460
MDA-MB-435 = test system: MDA-MB-435
DLD-1 = test system: DLD-1
MCF7 = test system: MCF7

Row | SMILES | GI50 (MOLT-4) | GI50 (SK-MEL-28) | GI50 (MDA-N) | GI50 (BT-549) | GI50 (HOP-92) | GI50 (EKVX) | GI50 (Hs-578T) | GI50 (M14) | GI50 (HT-29) | GI50 (SK-MEL-5) | GI50 (SK-MEL-2) | GI50 (T47D) | GI50 (SW-620) | GI50 (HL-60) | GI50 (NCI-H226) | GI50 (SR) | GI50 (NCI-H460) | GI50 (MDA-MB-435) | GI50 (DLD-1) | GI50 (MCF7)
1 | Cc1c(CNc2ccc(C(=O)NC(CC(=O)O)C(=O)O)cc2)ccc2nc(N)nc(N)c12 (centres undefined) | < 0.0157 µM (active) | 1.7 µM (inactive) | < 0.01 µM (active) | > 100 µM (inactive) | 1.1 µM (active) | > 100 µM (inactive) | 684 µM (inactive) | < 0.215 µM (active) | < 0.01 µM (active) | 0.021 µM (active) | > 100 µM (inactive) | > 100 µM (inactive) | < 0.01 µM (active) | < 0.01 µM (active) | > 100 µM (inactive) | < 0.0296 µM (active) | < 0.01 µM (active) | < 0.01 µM (active) | < 0.01 µM (active) | < 0.01 µM (active)
2 | Cc1ccc(C2=NN(C)COC2C(F)(F)F)cc1 (centres undefined) | > 100 µM (inactive) | > 100 µM (inactive) |  |  | > 100 µM (inactive) | > 100 µM (inactive) |  | > 100 µM (inactive) | > 100 µM (inactive) | > 100 µM (inactive) | > 100 µM (inactive) |  | > 100 µM (inactive) | > 100 µM (inactive) | > 100 µM (inactive) | > 100 µM (inactive) | > 100 µM (inactive) |  | > 100 µM (inactive) | 
3 | CCOC(=O)/C(=C\c1ccc[nH]1)C(=O)c1ccccc1 | 43.3 µM (inactive) | > 100 µM (inactive) |  |  | 22.6 µM (inactive) | > 100 µM (inactive) |  | > 100 µM (inactive) | > 100 µM (inactive) | > 100 µM (inactive) | 89.9 µM (inactive) |  | 52.7 µM (inactive) | 23.3 µM (inactive) | > 100 µM (inactive) | 25.8 µM (inactive) | > 100 µM (inactive) |  | > 100 µM (inactive) | 
4 | Clc1ncnc2c1ncn2CCCCCCCCCCCCn1cnc2c(Cl)ncnc21 | 6.78 µM (inactive) | 2.6 µM (inactive) |  |  | 5.24 µM (inactive) | 16.7 µM (inactive) |  | 15.3 µM (inactive) | 9.82 µM (inactive) | 4.83 µM (inactive) | 13.4 µM (inactive) |  | 22.4 µM (inactive) | 2.7 µM (inactive) | 11.7 µM (inactive) | 1.06 µM (active) | 16.4 µM (inactive) |  | 7.94 µM (inactive) | 
5 | CC(C)(c1ccccc1)c1ccc(Oc2ccc(C#N)c(C#N)c2)cc1 | 28.5 µM (inactive) | > 10 µM (inactive) |  |  | 10.3 µM (inactive) | 46.1 µM (inactive) |  | 71.8 µM (inactive) | > 10 µM (inactive) | 20.7 µM (inactive) | > 10 µM (inactive) |  | > 100 µM (inactive) | 20.5 µM (inactive) | > 10 µM (inactive) | 6.41 µM (inactive) | > 10 µM (inactive) |  | > 10 µM (inactive) | 
6 | Cc1ccc(/C=N/NS(=O)(=O)c2ccccc2)c(C)c1 | > 100 µM (inactive) | > 100 µM (inactive) |  |  | > 100 µM (inactive) | > 100 µM (inactive) |  | > 100 µM (inactive) | > 100 µM (inactive) | > 100 µM (inactive) | > 100 µM (inactive) |  | > 100 µM (inactive) | > 100 µM (inactive) | > 100 µM (inactive) | > 100 µM (inactive) | > 100 µM (inactive) |  | > 100 µM (inactive) | 
7 | CCCCCCCCCCCCCCCC(=O)OCC1OC(OC)C(NC(=O)N(CCCl)N=O)C(O)C1O (centres undefined) | 6.32 µM (inactive) | 28.5 µM (inactive) | 15.1 µM (inactive) | 28.3 µM (inactive) | 17.4 µM (inactive) | 31.2 µM (inactive) | 23 µM (inactive) | 16.8 µM (inactive) | 14.5 µM (inactive) | 21.1 µM (inactive) | 17.7 µM (inactive) |  | 9.48 µM (inactive) | 4.57 µM (inactive) | 15.5 µM (inactive) | 0.851 µM (active) | 5.61 µM (inactive) | 16.7 µM (inactive) | 14.7 µM (inactive) | 45.4 µM (inactive)
8 | COc1ccc2nc3cc(Cl)ccc3c(Sc3ccc([N+](=O)[O-])cc3)c2c1 | > 10 µM (inactive) | > 10 µM (inactive) |  |  | > 10 µM (inactive) | > 10 µM (inactive) |  | > 10 µM (inactive) | > 100 µM (inactive) | > 10 µM (inactive) | > 10 µM (inactive) |  | > 10 µM (inactive) | > 100 µM (inactive) | > 10 µM (inactive) | > 10 µM (inactive) | > 10 µM (inactive) |  | > 10 µM (inactive) | 
9 | O=C(CCCCCCCCCCc1ccccc1)c1c(O)cccc1O | 23.7 µM (inactive) | 20 µM (inactive) |  |  | 23.5 µM (inactive) | 21.3 µM (inactive) |  | 20 µM (inactive) | 33 µM (inactive) | 16.1 µM (inactive) | 15.8 µM (inactive) |  | 19.5 µM (inactive) | 25.1 µM (inactive) | 21.2 µM (inactive) | 25.2 µM (inactive) | 20.8 µM (inactive) |  | 21.3 µM (inactive) | 
10 | COc1ccc(C2[C@H]3C(=O)N(c4ccc(Cc5ccc(N6C(=O)[C@@H]7ON(c8ccccc8)C(c8ccc(OC)cc8)[C@@H]7C6=O)cc5)cc4)C(=O)[C@H]3ON2c2ccccc2)cc1 (some centres undefined) | > 100 µM (inactive) | > 100 µM (inactive) |  |  | 49.2 µM (inactive) | > 100 µM (inactive) |  | 23.1 µM (inactive) | > 100 µM (inactive) | 96.6 µM (inactive) | > 100 µM (inactive) |  | > 100 µM (inactive) | > 100 µM (inactive) | > 100 µM (inactive) | > 100 µM (inactive) | > 100 µM (inactive) |  | > 100 µM (inactive) | 
11 | O=C(Cc1nc2ccccc2c(=O)n1-c1c(Cl)cccc1Cl)c1ccncc1 | 19 µM (inactive) | 21.1 µM (inactive) |  |  | 13.8 µM (inactive) | 61.5 µM (inactive) |  | 30.6 µM (inactive) | 19.6 µM (inactive) | 15.9 µM (inactive) | 21.1 µM (inactive) |  | 36.6 µM (inactive) | 12 µM (inactive) | > 10 µM (inactive) | 17.8 µM (inactive) | 21.4 µM (inactive) |  | 26.7 µM (inactive) | 
12 | COc1ccc(C(NC(=O)C[C@@H](C(=O)N(C)C(C)C(=O)O)N(C)C(=O)[C@@H]2CCCN2C(=O)[C@H](C(C)C)N(C)C(=O)C(C(C)C)N(C)C(=O)[C@H](Cc2ccccc2)N(C)C(=O)C(NC(=O)OC(C)(C)C)C(C)C)c2ccc(OC)cc2)cc1 (some centres undefined) (Boc-[ξV][NMeF][ξNMeV][NMeV]P[NMeD](X4)[ξNMeA]-OH) | 8.39 µM (inactive) | 7.62 µM (inactive) | 12.5 µM (inactive) | 6.73 µM (inactive) | 8.26 µM (inactive) | 25.6 µM (inactive) | 2.56 µM (inactive) | 11.8 µM (inactive) | 16.2 µM (inactive) | 6.52 µM (inactive) | 7.74 µM (inactive) | 11.9 µM (inactive) | 8.18 µM (inactive) | 8 µM (inactive) | 7.64 µM (inactive) | 15.6 µM (inactive) | 24.5 µM (inactive) | 9.1 µM (inactive) | 18 µM (inactive) | 16.1 µM (inactive)
13 | CCCCCCCCCCCC1CC(=O)NCCCN(C)CCCCN(C)CCCN1C (centres undefined) [BUDMUNCHIAMINE A] | 1.95 µM (inactive) | 1.69 µM (inactive) |  |  | 1.39 µM (inactive) | 1.78 µM (inactive) |  | 1.8 µM (inactive) | 1.56 µM (inactive) | 1.97 µM (inactive) | 1.75 µM (inactive) |  | 1.06 µM (active) | 0.395 µM (active) | 1.93 µM (inactive) | 0.23 µM (active) | 1.36 µM (inactive) |  | 1.6 µM (inactive) | 
